In patent publication US9512126B2, “Substituted imidazopyridazines” (Bayer Intellectual Property GmbH, priority 2012, dated 2016):

Experiment: In vitro metabolic stability in rat hepatocytes (including calculation of hepatic in vivo blood clearance)
Assay type: in vitro ADME
Settings: Han Wistar, hepatocytes (freshly isolated, suspension), read-out: CL (hepatic in vivo blood clearance) (converted)
Protocol: Investigation of In Vitro Metabolic Stability in Rat Hepatocytes (Including Calculation of Hepatic In Vivo Blood Clearance (CL))
Hepatocytes from Han Wistar rats were isolated via a 2-step perfusion method. After perfusion, the liver was carefully removed from the rat: the liver capsule was opened and the hepatocytes were gently shaken out into a Petri dish with ice-cold WME. The resulting cell suspension was filtered through sterile gaze in 50 ml falcon tubes and centrifuged at 50×g for 3 min at room temperature. The cell pellet was resuspended in 30 ml WME and centrifuged through a Percoll® gradient for 2 times at 100×g. The hepatocytes were washed again with Williams' medium E (WME) and resuspended in medium containing 5% FCS. Cell viability was determined by trypan blue exclusion.
For the metabolic stability assay liver cells were distributed in WME containing 5% FCS to glass vials at a density of 1.0×10^6 vital cells/ml. The test compound was added to a final concentration of 1 μM. During incubation, the hepatocyte suspensions were continuously shaken and aliquots were taken at 2, 8, 16, 30, 45 and 90 min, to which equal volumes of cold methanol were immediately added.
Samples were frozen at −20° C. over night, after subsequently centrifuged for 15 minutes at 3000 rpm and the supernatant was analyzed with an Agilent 1200 HPLC-system with LCMS/MS detection.
The half-life of a test compound was determined from the concentration-time plot. From the half-life the intrinsic clearances were calculated. Together with the additional parameters liver blood flow, amount of liver cells in vivo and in vitro. The hepatic in vivo blood clearance (CL) and the maximal oral bioavailability (Fmax) was calculated. The following parameter values were used: Liver blood flow—4.2 L/h/kg rat; specific liver weight—32 g/kg rat body weight; liver cells in vivo—1.1×10^8 cells/g liver, liver cells in vitro—0.5×10^6 ml.

Row | CLhep predicted at 1 μM | Compound
1 | 50 mL/min/kg | C=C(c1cc(NCCC(F)(F)F)c2ncc(-c3ccc(C(=O)NC4CC4)c(C)c3)n2n1)c1cc(F)ccc1O [Example 22, N-cyclopropyl-4-{6-[1-(5-fluoro-2-hydroxyphenyl)ethenyl]-8-[(3,3,3-trifluoropropyl)amino]imidazo[1,2-b]pyridazin-3-yl}-2-methylbenzamide]
2 | 30 mL/min/kg | C=C(c1cccc(OC)c1)c1cc(NCCC(F)(F)F)c2ncc(-c3ccc(C(=O)NC4CC4)c(C)c3)n2n1 [Example 8, N-Cyclopropyl-4-{6-[1-(3-methoxyphenyl)vinyl]-8-[(3,3,3-trifluoropropyl)amino]imidazo[1,2-b]pyridazin-3-yl}-2-methylbenzamide]
3 | 36.7 mL/min/kg | C=C(c1ccc(OC)cc1)c1cc(NCCC(F)(F)F)c2ncc(-c3ccc(C(=O)NC4CC4)c(C)c3)n2n1 [Example 10, N-Cyclopropyl-4-{6-[1-(4-methoxyphenyl)vinyl]-8-[(3,3,3-trifluoropropyl)amino]imidazo[1,2-b]pyridazin-3-yl}-2-methylbenzamide]
4 | 56.7 mL/min/kg | COc1cccc(Cc2cc(NCCC(F)(F)F)c3ncc(-c4ccc(C(=O)NC5CC5)c(C)c4)n3n2)c1 [Comparative Example 4, N-cyclopropyl-4-{6-(3-methoxybenzyl)-8-[(3,3,3-trifluoropropyl)amino]imidazo[1,2-b]pyridazin-3-yl}-2-methylbenzamide, reference compound]
5 | 18.3 mL/min/kg | COc1ccc(C(=O)c2cc(NCCC(F)(F)F)c3ncc(-c4ccc(C(=O)NC5CC5)c(C)c4)n3n2)cc1F [Example 13, N-Cyclopropyl-4-{6-(3-fluoro-4-methoxybenzoyl)-8-[(3,3,3-trifluoropropyl)amino]imidazo[1,2-b]pyridazin-3-yl}-2-methylbenzamide]
6 | 33.3 mL/min/kg | C=C(c1cc(NCCC(F)(F)F)c2ncc(-c3ccc(C(=O)NC4CC4)c(C)c3)n2n1)c1cccc(F)c1F [Example 15, N-Cyclopropyl-4-{6-[1-(2,3-difluorophenyl)vinyl]-8-[(3,3,3-trifluoropropyl)amino]imidazo[1,2-b]pyridazin-3-yl}-2-methylbenzamide]
7 | 45 mL/min/kg | COc1ccc(Cc2cc(NCCC(F)(F)F)c3ncc(-c4ccc(C(=O)NC5CC5)c(C)c4)n3n2)cc1 [Comparative Example 5, N-Cyclopropyl-4-{6-(4-methoxybenzyl)-8-[(3,3,3-trifluoropropyl)amino]imidazo[1,2-b]pyridazin-3-yl}-2-methylbenzamide, reference compound]
8 | 20 mL/min/kg | COc1ccc(C(=O)c2cc(NCCC(F)(F)F)c3ncc(-c4ccc(C(=O)NC5CC5)c(C)c4)n3n2)cc1 [Example 9, N-Cyclopropyl-4-{6-(4-methoxybenzoyl)-8-[(3,3,3-trifluoropropyl)amino]imidazo[1,2-b]pyridazin-3-yl}-2-methylbenzamide]
9 | 23.3 mL/min/kg | Cc1cc(-c2cnc3c(NCCC(F)(F)F)cc(C(=O)c4cc(F)ccc4F)nn23)ccc1C(=O)NC1CC1 [Example 12, N-Cyclopropyl-4-{6-(2,5-difluorobenzoyl)-8-[(3,3,3-trifluoropropyl)amino]imidazo[1,2-b]pyridazin-3-yl}-2-methylbenzamide]

Second part, the compound before the results:

Row | Compound | CLhep predicted at 1 μM
10 | Cc1cc(-c2cnc3c(NCCC(F)(F)F)cc(C(=O)c4cccc(F)c4F)nn23)ccc1C(=O)NC1CC1 [Example 14, N-Cyclopropyl-4-{6-(2,3-difluorobenzoyl)-8-[(3,3,3-trifluoropropyl)amino]imidazo[1,2-b]pyridazin-3-yl}-2-methylbenzamide] | 35 mL/min/kg
11 | Cc1cc(-c2cnc3c(NCCC(F)(F)F)cc(Cc4cccc(F)c4)nn23)ccc1C(=O)NC1CC1 [Comparative Example 3, N-Cyclopropyl-4-{6-(3-fluorobenzyl)-8-[(3,3,3-trifluoropropyl)amino]imidazo[1,2-b]pyridazin-3-yl}-2-methylbenzamide, reference compound] | 40 mL/min/kg
12 | Cc1cc(-c2cnc3c(NCCC(F)(F)F)cc(C4(c5cc(F)ccc5O)CC4)nn23)ccc1C(=O)NC1CC1 [Example 23, N-cyclopropyl-4-{6-[1-(5-fluoro-2-hydroxyphenyl)cyclopropyl]-8-[(3,3,3-trifluoropropyl)amino]imidazo[1,2-b]pyridazin-3-yl}-2-methylbenzamide] | 41.7 mL/min/kg
13 | Cc1cc(-c2cnc3c(NCCC(F)(F)F)cc(C4(c5cccc(F)c5F)CC4)nn23)ccc1C(=O)NC1CC1 [Example 17, N-Cyclopropyl-4-{6-[1-(2,3-difluorophenyl)cyclopropyl]-8-[(3,3,3-trifluoropropyl)amino]imidazo[1,2-b]pyridazin-3-yl}-2-methylbenzamide] | 35 mL/min/kg
14 | Cc1cc(-c2cnc3c(NCCC(F)(F)F)cc(Cc4cccc(F)c4O)nn23)ccc1C(=O)NC1CC1 [Comparative Example 2, N-Cyclopropyl-4-{6-(3-fluoro-2-hydroxybenzyl)-8-[(3,3,3-trifluoropropyl)amino]imidazo[1,2-b]pyridazin-3-yl}-2-methylbenzamide, reference compound] | 68.3 mL/min/kg
15 | COc1ccc(Cc2cc(NCCC(F)(F)F)c3ncc(-c4ccc(C(=O)NC5CC5)c(C)c4)n3n2)cc1F [Comparative Example 1, N-Cyclopropyl-4-{6-(3-fluoro-4-methoxybenzyl)-8-[(3,3,3-trifluoropropyl)amino]imidazo[1,2-b]pyridazin-3-yl}-2-methylbenzamide, reference compound] | 50 mL/min/kg
16 | Cc1cc(-c2cnc3c(NCCC(F)(F)F)cc(C(O)c4cc(F)ccc4F)nn23)ccc1C(=O)NC1CC1 (racemic) [Example 11, (RS)—N-Cyclopropyl-4-{6-[(2,5-difluorophenyl)(hydroxy)methyl]-8-[(3,3,3-trifluoropropyl)amino]imidazo[1,2-b]pyridazin-3-yl}-2-methylbenzamide] | 38.3 mL/min/kg
17 | Cc1cc(-c2cnc3c(NCCC(F)(F)F)cc(C(F)(F)c4cccc(F)c4F)nn23)ccc1C(=O)NC1CC1 [Example 18, N-Cyclopropyl-4-{6-[(2,3-difluorophenyl)(difluoro)methyl]-8-[(3,3,3-trifluoropropyl)amino]imidazo[1,2-b]pyridazin-3-yl}-2-methylbenzamide] | 16.7 mL/min/kg
18 | Cc1cc(-c2cnc3c(NCCC(F)(F)F)cc(C4(c5cccc(F)c5)CC4)nn23)ccc1C(=O)NC1CC1 [Example 25, N-cyclopropyl-4-{6-[1-(3-fluorophenyl)cyclopropyl]-8-[(3,3,3-trifluoropropyl)amino]imidazo[1,2-b]pyridazin-3-yl}-2-methylbenzamide] | 33.3 mL/min/kg
19 | COc1ccc(C(F)(F)c2cc(NCCC(F)(F)F)c3ncc(-c4ccc(C(=O)NC5CC5)c(C)c4)n3n2)cc1F [Example 2, N-Cyclopropyl-4-{6-[difluoro(3-fluoro-4-methoxyphenyl)methyl]-8-[(3,3,3-trifluoropropyl)amino]imidazo[1,2-b]pyridazin-3-yl}-2-methylbenzamide] | 25 mL/min/kg
20 | Cc1cc(-c2cnc3c(NCCC(F)(F)F)cc(C(C)(O)c4cccc(F)c4O)nn23)ccc1C(=O)NC1CC1 (racemic) [Example 4, (RS)—N-Cyclopropyl-4-{6-[1-(3-fluoro-2-hydroxyphenyl)-1-hydroxyethyl]-8-[(3,3,3-trifluoropropyl)amino]imidazo[1,2-b]pyridazin-3-yl}-2-methylbenzamide] | 45 mL/min/kg
